In patent US20240166627A1, “Terpyridinedione compound or salt thereof, and preparation method and application thereof” (SHENZHEN SALUBRIS PHARMACEUTICALS CO., LTD., priority 2021, published 2024):
In brackets after ≈: the same amount, converted by molar mass.

Key:
[1] = Pharmacokinetic experiment in Beagle dogs (IV and PO); assay type: in vivo; details: male, dog, plasma
Source text: Polyethylene glycol 400 (batch number: GORKREUT, Saen Chemical Technology (Shanghai) Co., Ltd.); DMSO (batch number: 20200319, GHTECH (Guangdong) Co., Ltd.); and normal saline (batch number: C20052604, Jiangxi Kelun Pharmaceutical Co., Ltd.). An LC-MS instrument (Thermo Fisher Ultimate 3000 UPLC, TSQ QUANTUM ULTRA TSQ Quantum GC).
5 male Beagle dogs with weights being 5 kg to 7 kg, purchased from Beijing Mars Biotechnology Co., Ltd. […]
After the above mixture is given to the dogs through intragastric administration (n=3) or intravenous administration (n=2), about 1 mL of blood is collected from the forelimb or hindlimb vein with a scalp needle, respectively, at 5 min (intravenous administration only), 15 min, 30 min, 1 h, 2 h, 4 h, 6 h, 8 h, 24 h to put into blood collection tubes containing EDTA-K2 anticoagulant; centrifugation is performed for 10 min at 4000 rpm to separate plasma; and then the tubes are stored at −80° C. for testing.
A certain amount of a test sample is accurately weighted and dissolved with DMSO to 2 mg/mL, as a stock solution. The stock solution is diluted to 30000, 10000, 3000, 1000, 300, 100, 50, 30, and 10 ng/mL by using acetonitrile:water (1:1), to obtain standard curve working solutions. 5 μL of the working solution is added to 45 μL of blank canine plasma; and well mixing is performed through vortex, to prepare into standard curve samples equivalent to plasma concentrations of 3000, 1000, 300, 100, 30, 10, 5, 3, and 1 ng/mL. 30 μL of the standard curve sample and the collected plasma sample (plasma collected at 5 min, 15 min, and 30 min of intravenous administration is diluted 5-fold) are added to 150 μL of a propranolol acetonitrile solution (internal standard, 50 ng/mL) to precipitate protein, then 100 μL of water is added to well mix through vortex; centrifugation is performed for 5 min at 4000 rpm; and supernatant is taken for LC-MS analysis. LC-MS detection conditions include the following.
Chromatographic column: Waters ACQUITY™ PREMIER HSS T3, 50*2.1 mm, 1.8 μm.
Mobile phase A: water (0.1% formic acid); mobile phase B: acetonitrile; flow rate: 0.5 mL/min; and gradient elution is shown in Table 3 below.
After LC-MS detection of blood drug concentration, and a non-compartment model of WinNonlin 6.1 software is adopted to calculate pharmacokinetic parameters of beagle dogs after administration.

[2] = Determination of solubility; assay type: physicochemical; details: aqueous buffer, thermodynamic from solid, 37° C. 1 h
Experimental: About 0.5 mg of a to-be-tested sample in a centrifuge tube is weighted, an appropriate amount of DMSO is added to completely dissolve the sample, and then methanol is added to make up to 1 ml.
(If there are more pH values to be investigated, the preparation method may be deduced by analogy).
3. The prepared control solution and test solution are simultaneously put into a 37° C. water bath and heated for 1 h, after 1 h, the solutions are taken out and cooled to room temperature, and then the solutions are filtered with a 0.22 μm filter membrane for sample injection.
4. The concentration of the sample in the test solution is calculated according to C=(A*(ms/vs))/AS, and experiment results are shown in Table 2.
Note: ms, vs and AS are the weight, volume and peak area of the sample in the control solution, respectively.
A is the peak area of the test solution.

[3] = system: production of TNFα in U937; experiment: Releasing TNFα from U937 induced by LPS; assay type: cell-based; details: Homo sapiens, U-937; PMA-differentiated U937, LPS 100 ng/ml, 4 h; read-out: IC50 value that the compound inhibits the production of TNFα
Source text: Cytokine regulation in human monocytes has shown that the p38 pathway is the key to the biosynthesis of a plurality of pro-inflammatory cytokines including TNFα, IL-1β and IL-6. Therefore, the inhibition of the p38 MAPK pathway is to reduce inflammatory response by reducing the biosynthesis of the pro-inflammatory cytokines. […] This is a reflection of the effect of the compound in the present invention to facilitate reduction of inflammation, which is useful in the treatment of various diseases, including chronic inflammatory diseases, acute inflammatory diseases, or self-inflammatory diseases. The potency and efficacy of the p38 inhibitor in blocking cytokine production are evaluated using a human U937 cell line.
A 1640 medium with an article number being A10491-01, Gibco; penicillin-streptomycin with an article number being 15140-122, Gibco; fetal bovine serum with an article number being 10099-141C, Gibco; PBS with an article number being 10010-031, Gibco; LPS with an article number being L2880, Sigma; PMA with an article number being P1585, Sigma; dimethyl sulfoxide with an article number being D8418-1L, Sigma; and a TNFα kit with an article number being K151QWD-4, MSD.
A 96-well plate with an article number being 3599, Corning; a plate-vibrating device with an article number being QB-9002, QILINBEIER; a centrifuge with an article number being 5810R, Eppendorf; a carbon dioxide incubator with an article number being 371, Thermo; a counter with an article number being C10281, Gibco; a microscope with an article number being CKX41, OLYMPUS; and an MSD plate reader with an article number being 1201 MESO SECTOR 600, MSD.
U937, ATCC with an article number being CRL-1593.2.
About 2 mg of a drug is weighted; a mother solution is prepared to 10 mM (which is calculated by free alkali) by means of DMSO; and the mother solution is diluted 10-fold to 1 mM, and then is successively diluted 4-fold to 250 μM, 62.5 μM, 15.6 μM, 3.9 μM, 0.97 μM, 0.24 μM, and 0.061 μM. The above series of diluted DMSO drugs is diluted 20-fold as working solutions by using media.
At Day 0, 10000/well inoculation is performed, stimulation is performed for 48 h with 20 ng/ml of PMA, and culture is performed at 37° C., 5% CO2. • At Day 2, 1. Supernatant is removed from differentiated U937, cleaning is performed once with PBS, and 96 μl of the 1640 medium is added. • 2. 2 μl of the compound containing (DMSO with a final concentration being 0.1%), and culture is performed for 30 min at 37° C., 5% CO2. • 3. 2 μl of LPS (a final concentration being 100 ng/ml) is added, cells are stimulated, and culture is performed for 4 h at 37° C., 5% CO2. • 4. Centrifugation is performed, supernatant is taken, and content of TNFα in the supernatant is determined through ELISA.
The content of TNFα corresponding to each well is calculated by using a standard curve in the kit.
The compound IC50 is calculated by using a GraphPad nonlinear fitting formula, and for an experimental result, refer to Table 1.

p38β = p38β (Homo sapiens, UniProt Q15759); experiment: p38β kinase screening experiment (ADP-Glo); assay type: biochemical; details: ATP 100 μM in the substrate/ATP mix, 60 min; read-out: IC50 value that the compound inhibits p38β
Experimental: A certain amount of the compound is weighed, prepared into a 10/50 mM mother solution with DMSO, diluted 3 folds with DMSO, and diluted to 10 concentration points as a compound working solution.
50 nL of the diluted compound working solution is transferred to each well of a reaction plate (784075, Greiner) with Echo 655, then 2.5 μL (2 ng/μL) of a p38β kinase solution is added; after 10 minutes at room temperature, 2.5 μL of a mixed solution of a kinase substrate (0.4 mg/mL) and ATP (100 μM) is added, for reaction for 60 min at room temperature; and 4 μL of an ADP Glo reagent is added, for incubation for 40 min at room temperature. 8 μL of a kinase detection reagent is added, for incubation for 40 min at room temperature; and finally a light-emitting signal is read on Envision 2104.

Chain of p38β (Q15759 whole entry): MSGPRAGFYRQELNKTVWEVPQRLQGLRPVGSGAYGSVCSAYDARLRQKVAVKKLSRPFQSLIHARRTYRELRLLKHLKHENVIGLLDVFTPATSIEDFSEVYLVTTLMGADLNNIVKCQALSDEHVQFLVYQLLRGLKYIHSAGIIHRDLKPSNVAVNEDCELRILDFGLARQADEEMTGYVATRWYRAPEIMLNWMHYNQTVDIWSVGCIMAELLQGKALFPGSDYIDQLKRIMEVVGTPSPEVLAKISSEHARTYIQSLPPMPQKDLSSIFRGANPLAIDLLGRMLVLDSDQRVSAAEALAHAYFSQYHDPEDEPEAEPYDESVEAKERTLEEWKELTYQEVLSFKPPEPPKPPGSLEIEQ

Compound: Cc1cnc(-c2ccnc(C(C)(C)O)n2)cc1-n1c(C)cc(OCc2ncc(F)cc2F)c(Cl)c1=O (racemic) [Comparative example 1]
- AUC(0-t) ([1]; IV 1 mg/kg): 1530 ng·h/mL
- Cmax ([1]; IV 1 mg/kg): 657 ng/mL
- clearance ([1]; IV 1 mg/kg): 10.7 mL/min/kg
- AUC(0-t) ([1]; PO 5 mg/kg): 14400 ng·h/mL
- Cmax ([1]; PO 5 mg/kg): 2000 ng/mL
- bioavailability ([1]; PO 5 mg/kg vs IV 1 mg/kg): 189%
- solubility at 1 h ([2]; pH = 2.0, PBS buffer): 56.8 µg/mL (≈ 111 µM)
- solubility at 1 h ([2]; pH = 7.4, PBS buffer): 26.8 µg/mL (≈ 52.1 µM)
- IC50 [3]: 0.0104 µM
- IC50 (p38β): 5.97 µM
